The subject of data set [1] is Calu-6. Briefly: in vivo anti-tumor efficacy, non-small-cell lung xenograft model Calu-6. To be noted: Calu-6, 50 mg/kg/d.
Data set [2] concerns SKOV3. Briefly: in vivo anti-tumor efficacy, ovarian xenograft model SKOV3. To be noted: SKOV3, 50 mg/kg/d.
Data set [3] relates to GS-9L. Briefly: in vivo anti-tumor efficacy, glioblastoma GS-9L syngeneic rat tumor model. Particulars: 50 mg/kg/d.
Data set [4] concerns HT-29. As to the kind of experiment: in vivo anti-tumor efficacy, colorectal xenograft model HT-29.
The test system of data set [5] is metastatic colorectal cancer. As to the kind of experiment: phase I/II study of the combination of Compound A1 with Compound Mixture B1 (UMIN000017114). Format: in vivo, patients.
From the text: The key eligibility criteria were patients with metastatic colorectal cancer refractory or intolerant to fluoropyrimidine, irinotecan, oxaliplatin, anti-angiogenesis inhibitor and anti-EGFR antibody (if wild-type RAS) and without prior regorafenib and Compound Mixture B1 treatment; at least one measurable lesion; and ECOG performance status of 0 or 1.
Secondary endpoints included overall survival (OS), PFS, objective response rate, disease control rate, safety, and pharmacokinetic parameters.
Key Inclusion Criteria: • 1) Written informed consent • 2) >=20 years old • 3) Histologically or cytologically proven adenocarcinoma of colon or rectum (except appendiceal cancer), and KRAS test were carried out. • 4) Prior chemotherapy was discontinued due to disease progression, or an adverse event. • 5) No prior treatment with Regorafenib • 6) ECOG Performance Status of 0 or 1 • 7) Adequate oral intake • 8) With measurable disease according to RECIST • 9) Adequate organ function within 14 days prior to enrollment. • a. Hemoglobin>=9.0 g/d • b. Absolute neutrophil count>=1,500/mm3 • c. Platelet count>=100,000/mm3 • d with no liver metastasis, AST/ALT<=ULNx1.5 and T-Bil<=UNL with liver metastasis, AST/ALT<=ULNx2.5 and T-Bil<=UNL • e Serum creatinine<=1.5 mg/dL • 10) Women of childbearing potential must have a negative pregnancy test within 7 days prior to enrollment. […]
The test system of data set [6] is FaDu. As to the kind of experiment: in vivo anti-tumor efficacy, head and neck xenograft model FaDu. Particulars: 100 mg/kg/d.
The subject of data set [7] is PAC-120. Briefly: in vivo anti-tumor efficacy, hormone-dependent prostate xenograft model PAC-120. To be noted: PAC-120, 100 mg/kg/d.
The test system of data set [8] is NCI-H460. Briefly: in vivo anti-tumor efficacy, non-small-cell lung xenograft model NCI-H460. To be noted: NCI-H460, 25 mg/kg/d.
The subject of data set [9] is Rip-Tag. Briefly: in vivo anti-tumor efficacy, pancreas murine transgenic model Rip-Tag.
Data set [10] concerns Caki-1. Briefly: in vivo anti-tumor efficacy, renal xenograft model Caki-1. To be noted: Caki-1, 100 mg/kg/d.

Structures are written as SMILES.

Take `COC(=O)c1ccc2c(c1)NC(=O)/C2=C(\Nc1ccc(N(C)C(=O)CN2CCN(C)CC2)cc1)c1ccccc1` [Compound A, 3-Z-[1-(4-(N-((4-methyl-piperazin-1-yl)-methylcarbonyl)-N-methyl-amino)-anilino)-1-phenyl-methylene]-6-methoxycarbonyl-2-indolinone]: the “Efficacy T/C” value was “T/C 24% @ 50 mg/kg/d” in data set [1]; “T/C 19% @ 50 mg/kg/d” in [2]; “T/C 32% @ 50 mg/kg/d” in [3]; “T/C 16% @ 100 mg/kg/d” in data set [4] (HT-29 colorectal model, 100 mg/kg/d, T/C = reduction of tumor size in % of the control); “T/C 11% @ 100 mg/kg/d” in data set [6]; “T/C 34% @ 100 mg/kg/d” in data set [7]. In addition, the “Efficacy T/C” value is given as “T/C 54% @ 25 mg/kg/d” in data set [8] and “T/C 13% @ 100 mg/kg/d” in [10]. Moreover, the Efficacy entry in data set [4] (HT-29 large tumors) is on record as “tumor volume reduction”; in data set [9] it was “interference with tumor”. Besides, the “Two dose reduction of nintedanib, Reason” value in [5] (All enrolled patients, N = 35) is on record as “DILI (cycle 1, cycle 4)”. For the same molecule, the “patients requiring at least one dose reduction of nintedanib” value in [5] (all enrolled 35 patients, combination treatment) is on record as “Five”.

These data come from patent US20190160054A1, “PHARMACEUTICAL COMBINATION OF NINTEDANIB, TRIFLURIDINE AND TIPIRACIL FOR TREATING COLORECTAL CANCER” (Boehringer Ingelheim International GmbH, priority 2016, published 2019).
